Source: ChEMBL document CHEMBL5724806, “Unraveling interindividual differences and functional consequences of gut microbial metabolism of immunosuppressants” (2024)

What was measured:
Format in all cases: ADME
[1] = The drug is tested on the gut metagenome community of A-09 with ENA study accession number: PRJEB31790 for biotransformation under microaerobic condition. The drug concentrations were measured over 7 timepoints collected between 0 and 12 hours of incubation by liquid-chromatography-coupled mass spectrometry (LC–MS); design: dose 5 uM, timepoint 0, 0.75, 1.5, 3, 6, 9, 12 hours; details: 5 µM
[2] = The drug is tested on Streptococcus sanguinis strain: DSM20567 for biotransformation under anaerobic condition. The drug concentrations were measured over 6 timepoints collected between 0 and 12 hours of incubation by liquid-chromatography-coupled mass spectrometry (LC–MS); design: dose 5 uM, timepoint 0, 1.5, 3, 6, 9, 12 hours; details: 5 µM
[3] = The drug is tested on the gut metagenome community of P-03 with ENA study accession number: PRJEB31790 for biotransformation under anaerobic condition. The drug concentrations were measured over 7 timepoints collected between 0 and 12 hours of incubation by liquid-chromatography-coupled mass spectrometry (LC–MS); design: dose 5 uM, timepoint 0, 0.75, 1.5, 3, 6, 9, 12 hours; details: 5 µM
[4] = The drug is tested on Gemella haemolysans strain: DSM107751 for biotransformation under anaerobic condition. The drug concentrations were measured over 6 timepoints collected between 0 and 12 hours of incubation by liquid-chromatography-coupled mass spectrometry (LC–MS); design: dose 5 uM, timepoint 0, 1.5, 3, 6, 9, 12 hours; details: 5 µM
[5] = The drug is tested on Prevotella copri strain: DSM18205 for biotransformation under anaerobic condition. The drug concentrations were measured over 6 timepoints collected between 0 and 12 hours of incubation by liquid-chromatography-coupled mass spectrometry (LC–MS); design: dose 5 uM, timepoint 0, 1.5, 3, 6, 9, 12 hours; details: segatella copri, 5 µM
[6] = The drug is tested on Escherichia coli strain: DSM27469 for biotransformation under anaerobic condition. The drug concentrations were measured over 6 timepoints collected between 0 and 12 hours of incubation by liquid-chromatography-coupled mass spectrometry (LC–MS); design: dose 5 uM, timepoint 0, 1.5, 3, 6, 9, 12 hours; details: 5 µM
[7] = The drug is tested on Escherichia coli strain: DSM27469 for biotransformation under microaerobic condition. The drug concentrations were measured over 6 timepoints collected between 0 and 12 hours of incubation by liquid-chromatography-coupled mass spectrometry (LC–MS); design: dose 5 uM, timepoint 0, 1.5, 3, 6, 9, 12 hours; details: 5 µM
[8] = The drug is tested on Lactobacillus fermentum strain: DSM20052 for biotransformation under anaerobic condition. The drug concentrations were measured over 6 timepoints collected between 0 and 12 hours of incubation by liquid-chromatography-coupled mass spectrometry (LC–MS); design: dose 5 uM, timepoint 0, 1.5, 3, 6, 9, 12 hours; details: limosilactobacillus fermentum, 5 µM
[9] = The drug is tested on the gut metagenome community of T-03 with ENA study accession number: PRJEB31790 for biotransformation under anaerobic condition. The drug concentrations were measured over 7 timepoints collected between 0 and 12 hours of incubation by liquid-chromatography-coupled mass spectrometry (LC–MS); design: dose 5 uM, timepoint 0, 0.75, 1.5, 3, 6, 9, 12 hours; details: 5 µM
[10] = The drug is tested on the gut metagenome community of T-02 with ENA study accession number: PRJEB31790 for biotransformation under microaerobic condition. The drug concentrations were measured over 7 timepoints collected between 0 and 12 hours of incubation by liquid-chromatography-coupled mass spectrometry (LC–MS); design: dose 5 uM, timepoint 0, 0.75, 1.5, 3, 6, 9, 12 hours; details: 5 µM
[11] = The drug is tested on Bifidobacterium longum strain: DSM20088 for biotransformation under anaerobic condition. The drug concentrations were measured over 6 timepoints collected between 0 and 12 hours of incubation by liquid-chromatography-coupled mass spectrometry (LC–MS); design: dose 5 uM, timepoint 0, 1.5, 3, 6, 9, 12 hours; details: 5 µM
[12] = The drug is tested on Dorea formicigenerans strain: DSM3992 for biotransformation under anaerobic condition. The drug concentrations were measured over 6 timepoints collected between 0 and 12 hours of incubation by liquid-chromatography-coupled mass spectrometry (LC–MS); design: dose 5 uM, timepoint 0, 1.5, 3, 6, 9, 12 hours; details: 5 µM
[13] = The drug is tested on Gemella morbillorum strain: DSM20572 for biotransformation under anaerobic condition. The drug concentrations were measured over 6 timepoints collected between 0 and 12 hours of incubation by liquid-chromatography-coupled mass spectrometry (LC–MS); design: dose 5 uM, timepoint 0, 1.5, 3, 6, 9, 12 hours; details: 5 µM
[14] = The drug is tested on the gut metagenome community of A-05 with ENA study accession number: PRJEB31790 for biotransformation under anaerobic condition. The drug concentrations were measured over 7 timepoints collected between 0 and 12 hours of incubation by liquid-chromatography-coupled mass spectrometry (LC–MS); design: dose 5 uM, timepoint 0, 0.75, 1.5, 3, 6, 9, 12 hours; details: 5 µM
[15] = The drug is tested on Lactobacillus fermentum strain: DSM20052 for biotransformation under microaerobic condition. The drug concentrations were measured over 6 timepoints collected between 0 and 12 hours of incubation by liquid-chromatography-coupled mass spectrometry (LC–MS); design: dose 5 uM, timepoint 0, 1.5, 3, 6, 9, 12 hours; details: limosilactobacillus fermentum, 5 µM
[16] = The drug is tested on Bacteroides ovatus strain: ATCC 8483 for biotransformation under anaerobic condition. The drug concentrations were measured over 6 timepoints collected between 0 and 12 hours of incubation by liquid-chromatography-coupled mass spectrometry (LC–MS); design: dose 5 uM, timepoint 0, 1.5, 3, 6, 9, 12 hours; details: 5 µM
[17] = The drug is tested on Capnocytophaga ochracea strain: DSM7271 for biotransformation under anaerobic condition. The drug concentrations were measured over 6 timepoints collected between 0 and 12 hours of incubation by liquid-chromatography-coupled mass spectrometry (LC–MS); design: dose 5 uM, timepoint 0, 1.5, 3, 6, 9, 12 hours; details: 5 µM
[18] = The drug is tested on the gut metagenome community of A-09 with ENA study accession number: PRJEB31790 for biotransformation under anaerobic condition. The drug concentrations were measured over 7 timepoints collected between 0 and 12 hours of incubation by liquid-chromatography-coupled mass spectrometry (LC–MS); design: dose 5 uM, timepoint 0, 0.75, 1.5, 3, 6, 9, 12 hours; details: 5 µM
[19] = The drug is tested on Odoribacter splanchnicus strain: DSM20712 for biotransformation under anaerobic condition. The drug concentrations were measured over 6 timepoints collected between 0 and 12 hours of incubation by liquid-chromatography-coupled mass spectrometry (LC–MS); design: dose 5 uM, timepoint 0, 1.5, 3, 6, 9, 12 hours; details: 5 µM
[20] = The drug is tested on Parabacteroides distasonis strain: DSM20701 for biotransformation under anaerobic condition. The drug concentrations were measured over 6 timepoints collected between 0 and 12 hours of incubation by liquid-chromatography-coupled mass spectrometry (LC–MS); design: dose 5 uM, timepoint 0, 1.5, 3, 6, 9, 12 hours; details: 5 µM
[21] = The drug is tested on the gut metagenome community of A-01 with ENA study accession number: PRJEB31790 for biotransformation under microaerobic condition. The drug concentrations were measured over 7 timepoints collected between 0 and 12 hours of incubation by liquid-chromatography-coupled mass spectrometry (LC–MS); design: dose 5 uM, timepoint 0, 0.75, 1.5, 3, 6, 9, 12 hours; details: 5 µM
[22] = The drug is tested on Bifidobacterium longum strain: DSM20088 for biotransformation under microaerobic condition. The drug concentrations were measured over 6 timepoints collected between 0 and 12 hours of incubation by liquid-chromatography-coupled mass spectrometry (LC–MS); design: dose 5 uM, timepoint 0, 1.5, 3, 6, 9, 12 hours; details: 5 µM
[23] = The drug is tested on the gut metagenome community of A-10 with ENA study accession number: PRJEB31790 for biotransformation under anaerobic condition. The drug concentrations were measured over 7 timepoints collected between 0 and 12 hours of incubation by liquid-chromatography-coupled mass spectrometry (LC–MS); design: dose 5 uM, timepoint 0, 0.75, 1.5, 3, 6, 9, 12 hours; details: 5 µM
[24] = The drug is tested on Parabacteroides merdae strain: DSM19495 for biotransformation under anaerobic condition. The drug concentrations were measured over 6 timepoints collected between 0 and 12 hours of incubation by liquid-chromatography-coupled mass spectrometry (LC–MS); design: dose 5 uM, timepoint 0, 1.5, 3, 6, 9, 12 hours; details: 5 µM
[25] = The drug is tested on the gut metagenome community of T-01 with ENA study accession number: PRJEB31790 for biotransformation under microaerobic condition. The drug concentrations were measured over 7 timepoints collected between 0 and 12 hours of incubation by liquid-chromatography-coupled mass spectrometry (LC–MS); design: dose 5 uM, timepoint 0, 0.75, 1.5, 3, 6, 9, 12 hours; details: 5 µM
[26] = The drug is tested on the gut metagenome community of A-10 with ENA study accession number: PRJEB31790 for biotransformation under microaerobic condition. The drug concentrations were measured over 7 timepoints collected between 0 and 12 hours of incubation by liquid-chromatography-coupled mass spectrometry (LC–MS); design: dose 5 uM, timepoint 0, 0.75, 1.5, 3, 6, 9, 12 hours; details: 5 µM

SMILES | Bacterial Biotransformation [1] | Bacterial Biotransformation [2] | Bacterial Biotransformation [3] | Bacterial Biotransformation [4] | Bacterial Biotransformation [5] | Bacterial Biotransformation [6] | Bacterial Biotransformation [7] | Bacterial Biotransformation [8] | Bacterial Biotransformation [9] | Bacterial Biotransformation [10] | Bacterial Biotransformation [11] | Bacterial Biotransformation [12] | Bacterial Biotransformation [13] | Bacterial Biotransformation [14] | Bacterial Biotransformation [15] | Bacterial Biotransformation [16] | Bacterial Biotransformation [17] | Bacterial Biotransformation [18] | Bacterial Biotransformation [19] | Bacterial Biotransformation [20] | other results
C[C@H]1C[C@@H]2[C@H]([C@@H](O)C[C@@]3(C)[C@H]2CC[C@]3(O)C(=O)CO)[C@@]2(C)C=CC(=O)C=C12 [METHYLPREDNISOLONE] | Compound metabolized | Compound NOT metabolized | Compound metabolized | Compound NOT metabolized | Compound NOT metabolized | Compound NOT metabolized | Compound NOT metabolized | Compound NOT metabolized | Compound NOT metabolized | Compound metabolized | Compound NOT metabolized | Compound NOT metabolized | Compound NOT metabolized | Compound metabolized | Compound NOT metabolized | Compound NOT metabolized | Compound NOT metabolized | Compound metabolized | Compound NOT metabolized | Compound NOT metabolized | Bacterial Biotransformation [21]: Compound metabolized; Bacterial Biotransformation [22]: Compound NOT metabolized; Bacterial Biotransformation [23]: Compound metabolized; Bacterial Biotransformation [24]: Compound NOT metabolized; Bacterial Biotransformation [25]: Compound metabolized; Bacterial Biotransformation [26]: Compound metabolized
COc1c(C)c2c(c(O)c1C/C=C(\C)CCC(=O)OCCN1CCOCC1)C(=O)OC2 [MYCOPHENOLATE MOFETIL] | Compound metabolized | Compound metabolized | Compound metabolized | Compound metabolized | Compound metabolized | Compound NOT metabolized | Compound metabolized | Compound NOT metabolized | Compound metabolized | Compound metabolized | Compound metabolized | Compound NOT metabolized | Compound metabolized | Compound metabolized | Compound metabolized | Compound metabolized | Compound NOT metabolized | Compound metabolized | Compound NOT metabolized | Compound metabolized | Bacterial Biotransformation [21]: Compound metabolized; Bacterial Biotransformation [22]: Compound NOT metabolized; Bacterial Biotransformation [23]: Compound metabolized; Bacterial Biotransformation [24]: Compound metabolized; Bacterial Biotransformation [25]: Compound metabolized; Bacterial Biotransformation [26]: Compound metabolized
COc1c(C)c2c(c(O)c1C/C=C(\C)CCC(=O)O)C(=O)OC2 [MYCOPHENOLIC ACID] | Compound NOT metabolized | Compound NOT metabolized | Compound NOT metabolized | Compound NOT metabolized | Compound NOT metabolized | Compound NOT metabolized | Compound NOT metabolized | Compound NOT metabolized | Compound NOT metabolized | Compound NOT metabolized | Compound NOT metabolized | Compound NOT metabolized | Compound NOT metabolized | Compound NOT metabolized | Compound NOT metabolized | Compound NOT metabolized | Compound NOT metabolized | Compound NOT metabolized | Compound NOT metabolized | Compound NOT metabolized | Bacterial Biotransformation [21]: Compound NOT metabolized; Bacterial Biotransformation [22]: Compound NOT metabolized; Bacterial Biotransformation [23]: Compound NOT metabolized; Bacterial Biotransformation [24]: Compound NOT metabolized; Bacterial Biotransformation [25]: Compound NOT metabolized; Bacterial Biotransformation [26]: Compound NOT metabolized
